Measurements as given in patent US20040063681A1, “Methods for using gold (III) complexes as anti-tumor and anti-HIV agents” (priority 2002, published 2004).

Tests used:
[1] = test system: human lung fibroblast cells (CCD-19Lu); conditions: MTT
Procedure: Acute cytotoxicities of the gold(III) complexes to normal cells were evaluated using human lung fibroblast cells (CCD-19Lu) as model cell line. The percentages of cell survival at various doses of the gold complexes were determined by the MTT assay, and the toxicities profiles are shown in FIG. 15.

[2] = test system: Human Promyelocytic Leukemia (HL-60); experiment: MTT cytotoxicity, HL-60; format: cell-based; conditions: growth inhibition
From the text: (§1) Human promyelocytic leukemia (HL-60), human hepatocellular carcinoma (HepG2), Human cervix epitheloid carcinoma cells (HeLa) and human oral epidermoid carcinoma cells (KB-3-1), were obtained from American Type Culture Collection (ATCC) (Rockville, Md.). The multi-drug-resistant variant KB-V1 cell line was obtained by stepwise selections for vinblastine resistance as described by Shen et al., J. Biol. Chem. 261:7762-7770 (1986)], and was generously provided by Dr Michael Gottesman (NIH, Bethesda, Md.). Human nasopharyngeal carcinoma cells (SUNE1 and its cisplatin resistance variant, CNE1) were derived from poorly differentiated NPC in Chinese patients as described by Gu et al., Chin. J. Cancer 2:270-272 (1983), and were generously provided by Dr S. W. Tsao (The University of Hong Kong, Hong Kong, PRC). Cell culture flasks and 96 well microtitre plates were from Nalge Nunc hit. Culture medium, other medium constituents and phosphate buffered saline (PBS) were obtained from Gibco BRL (Rockville, Md.). Cell Proliferation Kit I (MTT) was purchased from Roche (Mannheim, Germany).
The anti-cancer activities of the gold(III) porphyrin complexes were evaluated toward some established human cancer cell lines: promyelocytic leukemia (HL-60), hepatocellular carcinoma (HepG2), cervix epitheloid carcinoma (HeLa), epidermoid carcinoma (KB-3-1) and its multi-drug resistant variant (KB-V1), nasopharyngeal carcinoma (SUNE1) and its cisplatin-resistant variant (CNE1). The experiments were carried out by following the MTT procedure (see Mosmann et al., J. Immunol. Methods 65:55-63 (1983). The IC50 values of the gold(III) porphyrin complexes together with that of cisplatin, and KAuCl4 are provided in Table 4a; and the IC50 values of the gold(III) Schiff-base and bis(pyridyl)carboxamide complexes are shown in Table 4b. The cytotoxicity profiles of some selected gold(III) porphyrin complexes toward SUNE1 and its cisplatin-resistant variant CNE1 are also shown in FIG. 7.

calf thymus DNA = experiment: Viscosity evaluation of DNA; conditions: (η/ηo)^1/3 vs binding ratio r
From the text: Viscosity evaluation. The binding interaction of the gold(III) porphyrins can be further investigated by examining the change of DNA viscosity upon binding of the metalloporphyrin. If the metalloporphyrin binds to DNA by intercalation, this would cause chain elongation, unwinding and stiffening of the DNA helix as a consequence of untwisting of the base pairs and helical backbone needed to accommodate the intercalator.
For comparison, the viscosity profiles for ethidium bromide (intercalator) and Hoechst 33342 (minor groove binder) are also shown is FIG. 10.

[3] = test system: Human Oral Epidermoid Carcinoma (KB-3-1); experiment: MTT cytotoxicity, KB-3-1; format: cell-based; conditions: MTT, growth inhibition
From the text: Human promyelocytic leukemia (HL-60), human hepatocellular carcinoma (HepG2), Human cervix epitheloid carcinoma cells (HeLa) and human oral epidermoid carcinoma cells (KB-3-1), were obtained from American Type Culture Collection (ATCC) (Rockville, Md.). […] Cell culture flasks and 96 well microtitre plates were from Nalge Nunc hit. Culture medium, other medium constituents and phosphate buffered saline (PBS) were obtained from Gibco BRL (Rockville, Md.). Cell Proliferation Kit I (MTT) was purchased from Roche (Mannheim, Germany).

[4] = test system: Human Oral Epidermoid Carcinoma (multi-drug resistance, KB-V-1); experiment: MTT cytotoxicity, KB-V-1; format: cell-based; conditions: MTT, growth inhibition, multi-drug resistant
From the text: as §1
(§2) The anti-cancer activities of the gold(III) porphyrin complexes were evaluated toward some established human cancer cell lines: promyelocytic leukemia (HL-60), hepatocellular carcinoma (HepG2), cervix epitheloid carcinoma (HeLa), epidermoid carcinoma (KB-3-1) and its multi-drug resistant variant (KB-V1), nasopharyngeal carcinoma (SUNE1) and its cisplatin-resistant variant (CNE1).

[5] = Electrochemical measurements (cyclic voltammetry); format: physicochemical
Procedure: Electrochemical measurements. Electrochemical measurements were performed at room temperature after purging with nitrogen using 0.1 M tetrabutylammonium hexafluorophosphate (TBAP)/acetonitrile as supporting electrolyte. The working electrode was a glassy carbon (Atomergic Chemetal V25, geometric area of 0.35 cm^2) electrode and the counter electrode was platinum gauze. A nonaqueous Ag/AgNO3 (0.1 M in acetonitrile) reference electrode was contained in a separate compartment connected to the test solution via fine sintered glass disks. The ferrocenium/ferrocene couple was used as the internal standard. The redox properties of the gold(III) porphyrin complexes in non-aqueous medium (CH2Cl2 with 0.1 M nBu4NPF6) have been studied by cyclic voltammetry with glassy carbon and platinum as the working and counter electrodes, respectively. […] The effect of para-substitution on the electrochemical potentials has been examined by Hammett correlation analysis.

[6] = UV-vis stability study in buffer solution with and without glutathione; format: physicochemical; conditions: room temperature
Procedure: UV-vis experiments. For UV-vis analysis, the absorption spectra of 2.5 μM (7 nmoles) of all studied complexes in (1:19) MeCN/Tris buffer solution was monitored over 72 h. […] The gold(III) solution was monitored over 48 h at room temperature and less than 10% decrease in the Soret band intensity was observed without any significant spectral shift in both the Soret and Q-bands.
Yet, no significant spectral shift and formation of new absorption bands were observed.
This finding confirms the excellent solution stability of 1j and 1k in physiologically related medium.
The precipitates are soluble in common organic solvent such as THF, CHCl3 and DMSO but insoluble in aqueous solution.

[7] = test system: human cancer cell lines (HL-60, HepG2, HeLa, KB-3-1, KB-V1, SUNE1, CNE1); format: cell-based; conditions: MTT, all studied cell lines; read-out: IC50 values over the panel of cancer cell lines
From the text: as §1, with “Cell Proliferation Kit I (MTT) was purchased from Roche (Mannheim, Germany).” left out
as §2, with “(CNE1). […]” for “(CNE1).”

[8] = cyclic voltammetry, 0.1 M nBu4NPF6, glassy carbon, vs Cp2Fe^+/0

SMILES: C1=Cc2nc1c(-c1ccccc1)c1ccc([n-]1)c(-c1ccccc1)c1nc(c(-c3ccccc3)c3ccc([n-]3)c2-c2ccccc2)C=C1.[Au+3].[Cl-] [Complex 1a]
- cell death ([1]; CCD-19Lu, 2 μM): 90%
- IC50 ([1]; read-out: IC50 CCD-19Lu, mean ± SE of at least three determinations): 910 ± 210 nM
- IC50 [2]: 730 nM
- change in viscosity of the DNA (calf thymus DNA): no appreciable change in viscosity of the DNA
- IC50 [3]: 200 nM
- IC50 [4]: 120 nM
- Couple I (first reduction couple) [5, 8]: −1.00 V
- Couple II (second reduction couple) [5, 8]: −1.48 V
- ΔE1o (E^0Y − E^0H), couple I ([5]; relative to Y=H (Complex 1a)): 0 V
- ΔE2^0 (E^0Y − E^0H), couple II ([5]; relative to Y=H (Complex 1a)): 0 V
- decrease in the Soret band intensity ([6]; 2.5 μM in Tris buffer/MeCN (19:1), 48 h): less than 10%
- decrease of the Soret band intensity ([6]; glutathione 2 mM in Tris buffer/MeCN=19:1, 48 h): about 27%
- IC50 [7]: 100 to 800 nM
